# Data from patent US9567347B2, “Use of small molecule inhibitors targeting the interaction between RAC GTPase and p67(phox)” (CHILDREN'S HOSPITAL MEDICAL CENTER, priority 2012, dated 2017).
# Assays:
# [1] = tested on: fMLP-stimulated differentiated HL-60 cells; experiment: H2-DCFDA FACS ROS production assay in fMLP-stimulated differentiated HL-60 cells; assay type: cell-based, human; conditions: for IC50: dHL-60 cells, DCFDA assay; for inhibition of ROS production, Phox-I1 analogs: FIG. 3B
# Method: HL-60 cells were propagated in RPMI 1640 medium containing 10% heat inactivated fetal bovine serum, 2 mM L-glutamine, 100 U/mL penicillin/streptomycin at 37° C. in air containing 5% CO2. For differentiation, HL-60 cells were cultured in 1.3% dimethyl sulfoxide (DMSO) as previously described (Servant, G., et al. (1999) Mol Biol Cell 10, 1163-1178, hereby incorporated by reference in its entirety). Primary murine neutrophils were isolated from C57Bl/6 mouse bone marrow according to a published protocol (Filippi et al., (2004) Nat Immunol 5, 744-751, hereby incorporated by reference in its entirety) using a discontinuous Percoll (Pharmacia) gradient and were utilized immediately in experiments. Human neutrophils were obtained from fresh blood (IRB #2010-1855, Cincinnati Children's Hospital medical Center) following a well established protocol using density gradient separation from whole blood (Oh et al. (2008) J Vis Exp., 17, pii: 745, hereby incorporated by reference in its entirety).
# Cells (5×10^5) were harvested and processed for Annexin V/7AAD staining according to manufacturer's protocol (Becton Dickinson). Flow cytometry data were acquired on a FACS Canto bench-top flow cytometer (Becton Dickinson) and the cell cycle distributions were determined by […] using Flo-Jo software (Bosco et al (2010) Blood 115, 3320-3328, hereby incorporated by reference in its entirety). For ROS production assay, primary murine neutrophils or dHL60 cells were incubated with compound for 2 hours prior to addition of H2-DCFDA according to manufacturer's instructions (Molecular Probes). Cells were then stimulated with 10 μM fMLP (Sigma), 1 mM CaCl2, and 1.5 mM MgCl2 for 15 minutes prior to wash and FACS analysis for mean fluorescence intensity. Non-fMLP stimulated control values were subtracted from all samples before normalization to fMLP-stimulated, vehicle control treated sample in order to display percent ROS inhibition.
# To validate the hits from preliminary screening in cells, several cellular functional assays were performed using different cell types to measure the effect of compounds on inhibition of ROS production. ROS levels were first analyzed by fluorescence-activated cell sorting (FACS) in HL-60 pre-incubated with compounds for 2 hr prior to stimulation of ROS production. The p67^phox inhibitor, Phox-I1, was tested against NAC (a ROS scavenger), DPI (a broad range inhibitor of NADPH oxidase), and NSC23766 (a Rac-GTP inhibitor; FIG. 2A). […] H2O2 added to the cells was included as a positive control for ROS measurement. Second, to test the capacity of Phox-I1 to inhibit ROS production in a primary cell context, primary murine neutrophils isolated from mouse bone marrow were treated with increasing concentrations of Phox-I1 and the efficacy of inhibition of fMLP-stimulated ROS production was analyzed. DPI treatment was included as a positive control for inhibition of ROS production (FIG. 2B). […] Next, to ascertain the optimal effective dose for ROS inhibition in cells, a dose titration series of Phox-I1 was administered to dHL-60 cells (FIG. 2C).
# [2] = tested on: fMLP-activated primary murine neutrophils; experiment: Nitroblue tetrazolium (NBT) assay; assay type: cell-based, mouse; conditions: 10 μM, FIG. 3C
# Method: Primary neutrophils from mouse bone marrow were subjected to fMLP stimulation in the presence or absence of various chemicals for 5 min. Cells were stained for NBT activity as previously described in the incorporated materials of Filippi et al. (2004) to reveal relative ROS production.
# To complement the DCFDA based FACS analysis and the luminol chemiluminescence method, nitroblue tetrazolium (NBT) assays were performed in fMLP-activated primary murine neutrophils (FIG. 3C).
# The NBT assay was performed in primary murine neutrophils to measure ROS neutrophil production. […] Each compound was used at 10 μM.
# dHL-60 cells = experiment: DCFDA ROS assay after wash and recovery (affinity assay); assay type: cell-based, human; conditions: 2 hr treatment, recovery 4 hr or 2 hr
# Method: (A) Apoptosis analysis by FACS of HL-60 cells treated with compound or vehicle control for 2 hours prior to 7-AAD and Annexin V staining. (B) HL-60 cells from A were harvested and lysates were immunoblotted for levels of pPAK, and actin was used as a control for loading. (C) F-actin reorganization in freshly isolated fMLP-stimulated primary murine neutrophils was analyzed. […] Cells were exposed to a 10 μM dose of Phox-I1, Phox-I2, and Analog 13, and 200 nM nocodazole. (D) The effect of Phox-I on NOX4 mediated ROS production was tested in primary murine neutrophils transfected with a NOX4 expressing plasmid. 10 μM Phox-I1 was applied to the cells for 30 min prior to ROS assay by luminol chemiluminescence in the presence of HRP. The fMLP-stimulated ROS activity in the presence or absence of 10 uM Phox-I1 was measured in parallel. (E) The antioxidant abilities of these lead compounds were tested by prestimulating dHL-60 cells with fMLP for 30 minutes prior to treatment with Phox-I1 or Phox-I2. Levels of superoxide were analyzed by DCFDA assay and FACS. NAC, apocyanin, DPI, and NSC23766 treated cells served as controls. (F) For affinity assay, DMSO-differentiated HL-60 cells were treated with standard effective dose of indicated compound for 2 hours, washed, and allowed to recover in normal media for 4 hours or 2 hours prior to fMLP stimulation and DCFDA ROS production assay by FACS analysis. (G) For stability assay, DMSO-differentiated HL-60 cells were treated with 20 μM dose of compound for the indicated time period prior to fMLP stimulation and DCFDA ROS production assay by FACS analysis.
# Next, a stability experiment was performed to determine the duration of effectiveness of the compound in suppressing neutrophils. To analyze the relative affinities of these compounds for the p67^phox target in cells, DCFDA ROS production assays were performed in dHL-60 cells treated with compound for 2 hr followed by wash and recovery for 4 hr or 2 hr in normal media prior to ROS production analysis.
SMILES,"ROS production compared to standard ROS inhibitors ([1]; 20 μM, pre-incubated 2 hr)","IC50 ([1]; Homo sapiens, HL-60) [nM]",dose of optimal cellular response ([1]; dose titration in dHL-60 cells) [µM],"inhibition of ROS production, Phox-I1 analogs ([1]; pre-incubated 2 hr)",superoxide production (NBT) [2],ROS inhibition after wash (dHL-60 cells),IC50 [1] [nM],"inhibition of ROS production, Phox-I1 analogs ([1]; pre-incubated 2 hr, listed as Analog 16)","inhibition of ROS production, Phox-I1 analogs ([1]; pre-incubated 2 hr, listed as analog 16)"
COc1ccc2c(c1)C1C=C(c3ccccc3)NN1C(c1cccc([N+](=O)[O-])c1)O2 (centres unmarked) [Phox-I1],able to attenuate ROS production,~3000,10,greatest inhibition of ROS production,significant blockade of superoxide production,still evident,,,
O=[N+]([O-])c1cccc(C2Nc3ccc([N+](=O)[O-])cc3C3C=CCC32)c1 (centres unmarked) [Phox-I2],,,,,heightened,did not display effective ROS inhibition,~1000,improved ROS inhibition over Phox1,greatest inhibition of ROS production
